Results reported in PubChem BioAssay (NCI).
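Each compound was tested at five concentrations against cells in 96-well plates for 48 hours. GI50 = concentration required for 50% inhibition of growth. TGI denotes the concentration required for complete inhibition of growth.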

Legend:
Assay in all cases: NCI anticancer screen, dose series, 48 h
[1] = test system: OVCAR-4 ovarian
[2] = test system: K-562 leukemia
[3] = test system: SK-OV-3 ovarian
[4] = test system: OVCAR-3 ovarian
[5] = test system: A498 renal
[6] = test system: A549 NSCLC
[7] = test system: HOP-92 NSCLC
[8] = test system: MCF7 breast
[9] = test system: NCI/ADR-RES ovarian
[10] = test system: MDA-MB-435

For `CCOC(=O)C1=C(Nc2ccc(Cl)c(Cl)c2)OC/C1=N\NS(=O)(=O)c1ccc(C)cc1`, the TGI [1] was > 100 µM, the TGI [2] was > 100 µM and the TGI [3] was > 100 µM. The TGI [4] was > 100 µM, the TGI [5] was > 100 µM and the TGI [6] was > 100 µM.
For `Cc1cc(Cl)ccc1C1OC(=O)c2c1ccc1ccccc21` (configuration not stated), the TGI [1] was > 100 µM, the TGI [2] was > 100 µM and the TGI [7] was > 100 µM. The TGI [3] was > 100 µM, the TGI [4] was > 100 µM and the TGI [5] was > 100 µM. The TGI [6] was > 100 µM.
With `Clc1nc(Cl)c2ncn(Cc3ccc(Cn4cnc5c(Cl)nc(Cl)nc54)cc3)c2n1` the GI50 [1] was 13.6 µM, the TGI [1] was 28.6 µM and the GI50 [2] was 661 nM. The TGI [2] was 14 µM, the GI50 [3] was > 100 µM and the TGI [3] was > 100 µM. The GI50 [4] was 8.68 µM, the TGI [4] was 25.6 µM and the GI50 [8] was 2.22 µM. The TGI [8] was 14.9 µM, the GI50 [5] was 7480 nM and the TGI [5] was 50.2 µM. The GI50 [9] was 7.64 µM, the TGI [9] was 28.8 µM and the GI50 [6] was 11.5 µM. It also gave a TGI [6] of 25.5 µM, a GI50 [10] of 14.2 µM and a TGI [10] of 33.6 µM.
For `O=C(NS(=O)(=O)c1ccccc1)C(Cc1ccccc1)C(Cc1ccccc1)C(=O)NS(=O)(=O)c1ccccc1` (configuration not stated), the TGI [1] was > 100 µM, the TGI [2] was > 100 µM and the TGI [7] was > 100 µM. The TGI [3] was > 100 µM, the TGI [4] was > 100 µM and the TGI [5] was > 100 µM. For the same molecule, the TGI [6] was > 100 µM.
`CC1=C(/C=C/C(C)=C/C=C/C(C)=C/CO)C(C)(C)CCC1` was tested, and the TGI [1] was > 100 µM, the TGI [2] was > 100 µM and the TGI [3] was > 100 µM. For the same molecule, the TGI [4] was 28.4 µM, the TGI [5] was 42.6 µM and the TGI [9] was 43.1 µM. For the same molecule, the TGI [6] was 45.5 µM and the TGI [10] was 62.4 µM.
For `C=CCCCc1ccc(C(O)CCCCCCCCCCCC)o1` (configuration not stated), the GI50 [2] was 24500 nM, the TGI [2] was > 100 µM and the GI50 [7] was 15.4 µM. The TGI [7] was 31.9 µM, the GI50 [3] was 16.4 µM and the TGI [3] was 37.2 µM. The GI50 [4] was 19 µM, the TGI [4] was 38.8 µM and the GI50 [8] was 17.6 µM. For the same molecule, the TGI [8] was 48.3 µM, the GI50 [9] was 17.4 µM and the TGI [9] was 34.2 µM. The GI50 [6] was 30.4 µM, the TGI [6] was 96.3 µM and the GI50 [10] was 26.2 µM. The TGI [10] was 58.7 µM.
With `Nn1c(N=Nc2c(O)[nH]c3c(Cl)cc(Cl)cc23)n[nH]c1=S` the TGI [1] was > 100 µM, the TGI [2] was > 100 µM and the TGI [7] was > 100 µM. The TGI [3] was > 100 µM, the TGI [4] was > 100 µM and the TGI [5] was > 100 µM. The TGI [6] was > 100 µM.
With `COc1ccc2c(c1OC)C(=O)c1cnccc1C2=O` the TGI [1] was > 100 µM, the TGI [2] was > 100 µM and the TGI [7] was > 100 µM. The TGI [3] was > 100 µM, the TGI [4] was > 100 µM and the TGI [6] was > 100 µM.
With `Cc1cccc(C(C)(C)C)c1NC(=O)CC1Sc2ccccc2NC1=O` (configuration not stated) the TGI [1] was > 100 µM, the TGI [2] was 73.5 µM and the TGI [7] was 80 µM. The TGI [3] was > 100 µM, the TGI [4] was > 100 µM and the TGI [5] was > 100 µM. The TGI [6] was > 100 µM.
`COc1cc(Cl)cc(-c2nn(-c3cccc(NC(=O)Nc4ccc(Cl)c(C(F)(F)F)c4)c3)cc2-c2ccncc2)c1` gave a GI50 [1] of 1.8 µM, a TGI [1] of 28.8 µM and a GI50 [2] of 537 nM. For the same molecule, the TGI [2] was 10.1 µM, the GI50 [3] was 3.15 µM and the TGI [3] was 9.85 µM. For the same molecule, the GI50 [4] was 0.451 µM, the TGI [4] was 2.66 µM and the GI50 [8] was 1.01 µM. For the same molecule, the TGI [8] was 11 µM, the GI50 [5] was 2680 nM and the TGI [5] was 14.4 µM. It also gave a GI50 [9] of 1.77 µM, a TGI [9] of 11.6 µM and a GI50 [6] of 0.678 µM. It also gave a TGI [6] of 10.8 µM, a GI50 [10] of 1.76 µM and a TGI [10] of 4.36 µM.
With `O=C1C=CC(CC(=O)c2ccc3ccccc3c2)O1` (configuration not stated) the TGI [1] was 63.7 µM, the TGI [2] was > 100 µM and the TGI [7] was 47 µM. The TGI [3] was > 100 µM, the TGI [4] was 41.6 µM and the TGI [5] was 46.1 µM. For the same molecule, the TGI [6] was > 100 µM.
With `COc1ccc(-c2nn(-c3cccc(NC(=O)c4ccc(N5CCOCC5)c(C(F)(F)F)c4)c3)cc2-c2ccncc2)cc1Cl` the GI50 [1] was 36.2 µM, the TGI [1] was > 50 µM and the GI50 [2] was 1890 nM. For the same molecule, the TGI [2] was > 50 µM, the GI50 [3] was 32.8 µM and the TGI [3] was > 50 µM. For the same molecule, the GI50 [8] was 3.11 µM, the TGI [8] was > 50 µM and the GI50 [5] was 2440 nM. For the same molecule, the TGI [5] was 26.4 µM, the GI50 [9] was 3.41 µM and the TGI [9] was 24.5 µM. For the same molecule, the GI50 [6] was 6.52 µM, the TGI [6] was > 50 µM and the GI50 [10] was 2.6 µM. It also gave a TGI [10] of 35 µM.
In the case of `C=CS(=O)(=O)CCN1CC1`, the TGI [1] is reported as > 10 µM, the TGI [2] is reported as > 10 µM and the TGI [7] is reported as > 10 µM. The TGI [3] was > 10 µM, the TGI [4] was > 10 µM and the TGI [8] was > 10 µM. For the same molecule, the TGI [9] was > 10 µM, the TGI [6] was > 10 µM and the TGI [10] was > 10 µM.
In the case of `O=[N+]([O-])c1cccc(C2=NOC3C4CCC(C4)C23)c1` (configuration not stated), the TGI [1] is reported as > 100 µM, the TGI [7] is reported as > 100 µM and the TGI [3] is reported as > 100 µM. For the same molecule, the TGI [4] was > 100 µM, the TGI [5] was > 100 µM and the TGI [6] was > 100 µM.
For `Cc1c(Sc2ccccc2)[n+](=O)c2cc(Cl)c(Cl)cc2n1[O-]`, the GI50 [1] was 85.3 µM, the TGI [1] was > 100 µM and the GI50 [2] was 2220 nM. For the same molecule, the TGI [2] was 11.3 µM, the GI50 [7] was 20 µM and the TGI [7] was 51.4 µM. The GI50 [3] was > 100 µM, the TGI [3] was > 100 µM and the GI50 [4] was 23.3 µM. For the same molecule, the TGI [4] was 60.4 µM, the GI50 [8] was 38.3 µM and the TGI [8] was > 100 µM. For the same molecule, the GI50 [9] was > 100 µM, the TGI [9] was > 100 µM and the GI50 [6] was > 100 µM. The TGI [6] was > 100 µM, the GI50 [10] was 95.6 µM and the TGI [10] was > 100 µM.
With `CN(/N=N/c1nc(OCc2ccccc2)c2[nH]cnc2n1)C(=O)Oc1ccc([N+](=O)[O-])cc1` the GI50 [1] was 22.8 µM, the TGI [1] was > 50 µM and the GI50 [2] was 11900 nM. The TGI [2] was > 50 µM, the GI50 [7] was 7.17 µM and the TGI [7] was 26.6 µM. For the same molecule, the GI50 [3] was 10.4 µM, the TGI [3] was 28.6 µM and the GI50 [4] was 9.49 µM. The TGI [4] was 24.4 µM, the GI50 [8] was 12.4 µM and the TGI [8] was > 50 µM. For the same molecule, the GI50 [6] was 12 µM, the TGI [6] was 31.6 µM and the GI50 [10] was 12.4 µM. The TGI [10] was 39.8 µM.
With `O=C(O)c1ccccc1NC(=O)C1CCCCC1` the TGI [1] was > 100 µM, the TGI [2] was > 100 µM and the TGI [7] was > 100 µM. For the same molecule, the TGI [3] was > 100 µM, the TGI [4] was > 100 µM and the TGI [5] was > 100 µM. The TGI [6] was > 100 µM.
`CCC(Oc1ccc(OC)c2ccccc(=O)c12)C(=O)O` (configuration not stated) was tested, and the TGI [1] was > 100 µM, the TGI [2] was > 100 µM and the TGI [3] was > 100 µM. For the same molecule, the TGI [4] was > 100 µM, the TGI [5] was > 100 µM and the TGI [6] was > 100 µM.
In the case of `O=C(Nc1ccn(CCI)c(=O)n1)c1ccccc1`, the TGI [1] is reported as > 100 µM, the TGI [2] is reported as > 100 µM and the TGI [7] is reported as > 100 µM. The TGI [3] was > 100 µM, the TGI [4] was > 100 µM and the TGI [5] was > 100 µM. For the same molecule, the TGI [6] was > 100 µM.
In the case of `CCCCCCC(/C=N/O)C(C)(O)CCC` (configuration not stated), the TGI [1] is reported as > 100 µM, the TGI [2] is reported as > 100 µM and the TGI [4] is reported as > 100 µM. For the same molecule, the TGI [5] was > 100 µM and the TGI [6] was > 100 µM.
With `COC(=O)C1=CC2OC1(C)CCC2=O` (configuration not stated) the TGI [1] was > 100 µM, the TGI [2] was > 100 µM and the TGI [3] was > 100 µM. For the same molecule, the TGI [4] was > 100 µM and the TGI [6] was > 100 µM.
